Data published in patent US20190201430A1, “TREATING OCULAR NEOVASCULARIZATION” (Massachusetts Eye and Ear Infirmary, priority 2014, published 2019).

Assays:
caveolin-1 [1] = assay: Western blotting of H2O2 induced caveolin-1 phosphorylation in HUVEC; assay type: cell-based, human; conditions: AICAR 2 mM 2 h
Description: (§1) HUVECs (Lonza, Walkersville, Md.) were cultured in Endothelial Growth Medium (EGM, Lonza, Walkersville, Md.). For all experiments, cells were grown at 37° C. in a humidified atmosphere of 5% CO2 and 95% air. Experiments were performed on cells below passage 3 to 6 grown to 80-90% confluence.
(§2) Protein extraction and western blotting were carried out as described previously (Morizane et al. JBC). Densitometric analysis of bands was performed using ImageJ software. Lane-loading differences were normalized by β-actin.
Cells were transfected with siRNAs using Nucleofection kit (Amaxa Biosysteins, Gaithersburg, Md.), following the manufacturer's protocol. The medium was changed at 6 h after transfection. The down-regulation of each protein was evaluated at 3 days after nucleofection.

AMPK [2] = assay: Western blotting of AMPK phosphorylation in HUVEC (Example 1); assay type: cell-based, human; conditions: each concentration of AICAR for 2 h, FIG. 2A
Description: as §1, §2

[3] = test system: HUVECs cocultured with NHDFs; assay: In vitro angiogenesis (tube formation) assay; assay type: cell-based, human; conditions: AICAR 0.25, 0.5, 1.0, 2.0 mM; VEGF 12.5 ng/mL; FIG. 8A,B
Description: To evaluate the effects of AICAR on angiogenesis, HUVECs were cocultured with NHDFs in a 24-well plate with or without VEGF and AICAR. NHDF cells were seeded at 1.0×10^5 cells/well and then cultured for 2 wks to form a fibroblast cell sheet. […] Suramin (50 μM) was used as the inhibitor of VEGF. At 3, 7 and 10 days after treatment, cells were fixed at −20° C. in ethanol and acetone (1:1). Subsequently, cells were blocked with 1% bovine serum albumin (BSA) in phosphate-buffered saline for 30 min at room temperature, and then incubated with primary rabbit anti-human CD31 antibody overnight at 4° C. After the cells were washed with Tris-buffered saline (TBS), Alexa Flour 488 goat anti-rabbit IgG was applied for 2 h at room temperature. The tube length was quantified using a Kurabo Angiogenesis Image Analyzer (imaging software; Kurabo, Osaka, Japan).

AMPK [4] = assay: Western blotting of AMPK phosphorylation in HUVECs (Example 2); assay type: cell-based, human
Description: (§3) Human umbilical vein endothelial cells (HUVECs) were cultured in endothelial growth medium (EGM, Lonza, Walkersville, Md.). Normal human dermal fibroblasts (NHDFs) were cultured in fibroblast basal medium (ATCC, Rockville, Md.). Cells were grown at 37° C. in a humidified atmosphere of 95% air, 5% CO2. Experiments were performed on cells below passage 3 to 6 grown to 80%-90% confluence.
(§4) Protein extraction and Western blotting were carried out as described previously (Morizane et al. JBC (26)). We conducted a densitometric analysis of bands using ImageJ software. Lane-loading differences were normalized by β-actin.

PTEN = assay: Western blotting of PTEN phosphorylation in HUVECs; assay type: cell-based, human; conditions: AICAR 2 mM, presence or absence of VEGF; FIG. 9A,D
Description: as §3, §4

HUVEC monolayer = assay: In vitro vascular permeability assay (Alexa 555-BSA leakage); assay type: cell-based, human; conditions: AICAR 2 mM 2 h, VEGF 12.5 ng/mL 10 min; FIG. 10A
Description: We conducted the in vitro vascular permeability assay using Alexa Flour 555-labeled bovine serum albumin (BSA) (Invitrogen) and an In Vitro Vascular Permeability Assay kit (Millipore). According to the manufacturer's instructions, HUVECs were seeded at a density of 1×10^5 on a collagen-coated polystyrene filter. After a confluent monolayer was formed, each chamber was treated with AICAR or stimulated with VEGF. To measure endothelial permeability, 100 μL of Alexa Flour 555-BSA solution (0.050 mg/mL) was added into the insert and incubated for 10 min, and then the insert was removed and 100 μL medium was collected from the bottom chamber.
The fluorescent density of samples was analyzed on a SPECTRAmax GEMINI XS Microplate Spectrofluorometer (Molecular Devices, Sunnyvale, Calif.) at excitation and emission wavelengths of 555 nm and 565 nm, respectively.

HUVECs = assay: Albumin endocytosis assay under VEGF; assay type: cell-based, human; conditions: AICAR 2 mM 2 h, VEGF 12.5 ng/mL 10 min; FIG. 10B
Description: After overnight serum starvation, HUVECs were pretreated with AICAR (2 mM) for 2 h and then stimulated with VEGF (12.5 ng/mL) for 10 min. We added BSA conjugated with Alexa 555 (50 μg/mL, Life Technologies, Gaithersburg, Md.) in the medium during the experiment. Cells on coverslips were washed three times with cold TBS and fixed in 100% methanol at −20° C. for 15 min. Cells were then permeabilized in 0.3% Triton X-100, 0.15% BSA in TBS with 0.05% Tween 20 (TBST) for 15 min at room temperature, and blocked with 0.5% skim milk in TBST for 60 min at room temperature. Cells were incubated in p-caveolin-1 antibody diluted 1:200 and VE-cadherin antibody diluted 1:400 overnight at 4° C., and then incubated for 2 h in secondary antibody diluted 1:300. Cells were then rinsed three times in TBST before mounting in Toto3 (Life Technologies). Images were acquired with a Leica TCS SP2 spectral confocal laser scanning microscope (Leica Microsystems, Wetzlar, Germany).

caveolin-1 [5] = assay: Western blotting of VEGF induced caveolin-1 phosphorylation in HUVECs; assay type: cell-based, human; conditions: AICAR 2 mM 2 h
Description: as §3, §4
(§5) Cells were transfected with siRNAs using a Nucleofection kit (Amaxa Biosystems, Gaithersburg, Md.), following the manufacturer's protocol. The medium was changed 6 h after transfection. The down-regulation of each protein was evaluated 3 days after nucleofection.

c-Abl = assay: Western blotting of VEGF induced c-Abl phosphorylation in HUVECs; assay type: cell-based, human; conditions: AICAR 2 mM 2 h
Description: as §3, §4, §5

prdx1/c-Abl complex = assay: Co-immunoprecipitation of prdx1 and c-Abl under VEGF; assay type: cell-based, human; conditions: AICAR 2 mM 2 h, VEGF 12.5 ng/mL 10 min
Description: Immunoprecipitation was performed with the Universal Magnetic Co-IP Kit (Active Motif North America, Carlsbad, Calif.) according to the manufacturer's instruction.
as §5

endothelial cells = conditions: in the absence of VEGF; cited from earlier work
[6] = AMPKα1 or α2 siRNA, VEGF 12.5 ng/mL 10 min, FIG. 13

SMILES: NC(=O)c1ncn([C@@H]2O[C@H](CO)[C@@H](O)[C@H]2O)c1N [AICAR, 5-Aminoimidazole-4-carboxamide riboside]
- inhibitory effect of AICAR on H2O2 induced caveolin-1 phosphorylation after knockdown of either AMPKα isoform (caveolin-1 [1]; AMPKα1 or α2 siRNA HUVEC, H2O2 2 mM 30 min, FIG. 3): abolished
- H2O2 induced phosphorylation of caveolin-1 (caveolin-1 [1]; HUVEC, then H2O2 0.5-2.0 mM 30 min, FIG. 1A,B): significantly suppressed
- H2O2 induced caveolin-1 phosphorylation in c-Abl siRNA cells (caveolin-1 [1]; c-Abl siRNA HUVEC, H2O2 2 mM 30 min, FIG. 5D,E): did not change caveolin-1 phosphorylation significantly
- inhibitory effect of AICAR on H2O2 induced caveolin-1 phosphorylation in cells lacking prdx1 (caveolin-1 [1]; prdx1 siRNA HUVEC, H2O2 2 mM 30 min, FIG. 6A,B): abolished
- AMPK phosphorylation after AICAR administration (AMPK [2]): phosphorylated AMPK dose-dependently
- VEGF-induced vascular tube formation (tube length) [3]: dose-dependent inhibition
- AMPK phosphorylation on AICAR treatment (time course) (AMPK [4]; AICAR 2 mM, presence or absence of VEGF, FIG. 9A,B): resulted in AMPK and PTEN phosphorylation
- AMPK phosphorylation on AICAR administration (AMPK [4]; each concentration of AICAR for 2 h, FIG. 12A): dose dependent AMPK phosphorylation
- PTEN phosphorylation on AICAR treatment (time course) (PTEN): resulted in AMPK and PTEN phosphorylation
- VEGF-induced albumin leakage (HUVEC monolayer): significantly suppressed
- VEGF-induced albumin endocytosis (HUVECs): significantly suppressed
- VEGF induced phosphorylation of caveolin-1 (caveolin-1 [5]; VEGF 12.5 ng/mL 0 to 60 min, FIG. 11A,C): significantly suppressed
- inhibitory effect of AICAR on VEGF-induced caveolin-1 phosphorylation after knockdown of either AMPKα isoform (caveolin-1 [5]; [6]): abolished
- inhibitory effect of AICAR on VEGF-induced caveolin-1 phosphorylation in cells lacking prdx1 (caveolin-1 [5]; prdx1 siRNA, VEGF 12.5 ng/mL 10 min, FIG. 15A,C): abolished
- VEGF induced phosphorylation of c-Abl (c-Abl; VEGF 12.5 ng/mL 0 to 60 min, FIG. 11A,B): significantly suppressed
- inhibitory effect of AICAR on VEGF-induced c-Abl phosphorylation after knockdown of either AMPKα isoform (c-Abl; [6]): abolished
- inhibitory effect of AICAR on VEGF-induced c-Abl phosphorylation in cells lacking prdx1 (c-Abl; prdx1 siRNA, VEGF 12.5 ng/mL 10 min, FIG. 15A,B): abolished
- VEGF induced dissociation between prdx1 and c-Abl (prdx1/c-Abl complex; FIG. 15D): inhibited
- ability of AICAR to inhibit VEGF induced prdx1/c-Abl dissociation after knockdown of AMPKα1 or α2 (prdx1/c-Abl complex; AMPKα1 or α2 siRNA, FIG. 15F,G): decreased
- endothelial proliferation (endothelial cells): suppressed endothelial proliferation
